The results in this text go back to US10321681B2, “Plant support formulation, vehicle for the delivery and translocation of phytologically beneficial substances and compositions containing same” (NORTH-WEST UNIVERSITY, priority 2006, dated 2019).

This assay deals with maize. Nature of the assay: Captan with Elementol R seed treatment, dry maize field trial. In kind it is in vivo. The note with it: versus untreated seeds. Here is the method: A genetically modified cultivar, supplied by a large seed producing company was used. One bag of treated seed was split and one portion of the seeds in the bag was treated with Captan, while another portion was treated with Captan mixed with Elementol R in the following manner. Captan is a broad-spectrum contact fungicide that has been used on corn seed since the 1950s. It is usually dyed pink and leaves a pink dust in the seed bag and planter box. It is very effective against a broad range of soil fungi. The prescribed amount of Captan was mixed directly with the seeds (Captan reference group). For the test group, seeds were mixed with a similar amount of Captan in 2% Elementol R. The seeds of both groups were briefly mixed or stirred with their individual treatment and then left to dry. Seeds were planted in blocks of 3 or 5 rows stretching the length of the maize field with untreated block s on both sides of each of the treatment groups in the North West Province, South Africa. Culturing was done according to general farming practices with no irrigation.
Plants of each of the untreated, the reference Captan group and the Elementol R/Captan group were collected by pulling up every fifth plant in a row. […]
The total plant mass, the root mass and the leaf mass of each plant were determined. […]

Consider `O=C1C2CC=CCC2C(=O)N1SC(Cl)(Cl)Cl` (centres unmarked) [Captan], for which the root mass result is given as “only slightly enhanced root mass”. Further, the “leaf mass / growth of the plant leaves” value (fifty plants per group) is on record as “did not result in any change of growth of the plant leaves”.
